From US20140113904A1, “TREATMENT OF CANCER WITH TOR KINASE INHIBITORS” (SIGNAL PHARMACEUTICALS, LLC, priority 2012, published 2014)

How the values were obtained:
[1] = 5-day tolerability study of Compound 1 in PC3 tumor-bearing mice (body weight); type: in vivo, SCID mice
Procedure: Plasma and tumor samples were collected 24 hours after the last dose in each dose group.
Mice were monitored daily for clinical signs and body weight changes. At the end of the study, mice were euthanized and plasma and tumor samples were collected for PK/PD determination. PD markers, pS6 and pAkt, were measured using MSD technology.
Initial body weights were recorded prior to the initiation of treatment using a digital scale. The percent body weight change during the course of the study was calculated using initial body weight measurements. Body weights of each animal were measured twice a week at the same time that tumor measurements were taken. Body weights were measured more frequently if significant decreases were noted during the course of the study.
In preparation for xenograft studies, a 5-day tolerability study was performed. […] The animals in the 50 mg/kg dose group lost >17% of the starting body weight by Day 5 (24 hours after the 4th dose). The animals in this group were euthanized. By Day 6 (24 hours after the 5th dose), the animals in the 25 mg/kg and 10 mg/kg groups lost 9% and 4%, respectively, of the starting body weight.

PC3 tumors [2] = assay: Apoptosis TUNEL assay in PC3 tumors (Compound 2); type: in vivo, SCID mice; conditions: 5 mg/kg oral QD for 6 days, data not shown
pDNA-PK (S2056) = pDNA-PK (S2056) immunohistochemistry in PC3 tumors (Compound 2); type: in vivo, SCID mice; conditions: 5 mg/kg QD for 6 days
4EBP1 (T46) = assay: p-4E-BP1 (T46) in PC-3 cell lysates, ELISA (Compound 2); type: cell-based; conditions: Homo sapiens; PC-3, 1 hour; read-out: mTORC1 4EBP1 (T46) IC50
Procedure: The direct substrate for mTORC1 was 4E-BP1([…]) and the indirect downstream substrate was S6RP (S235/[…]). The direct substrate for mTORC2 was AKT (S473) and the indirect downstream substrates measured were GSK3β(S9) and PRAS40 ([…]). Additionally, the phosphorylation status of AKT (T308), a phosphorylation site for PDK1, was monitored. Concentration-response curves were plotted and IC50 values determined. Cells were plated at the required density as described in the previous section detailing the Meso Scale assays. […] After incubation with compound, the culture medium was removed via aspiration. Then the plate was placed on ice and 35 μL of the Invitrogen Cell Extraction Buffer (containing fresh PMSF and protease inhibitor cocktail) were added to each well. The treated cells were allowed to undergo lysis for a total of 30 minutes on ice and then shaken for 2 minutes at 4° C. At this point, the plate could be either frozen at -80° C. for later analysis or analyzed immediately with the Invitrogen 4E-BP1[[…]] assay kit. Standards were prepared according to the supplied protocol and 100 μL of each standard was added to appropriate wells. Samples containing Cell Extraction buffer only or diluent buffers only also were included for background controls. […] Absorbance was measured at 450 nm on the VICTORTM X2 multilabel plate reader (Perkin Elmer).

PC3 tumors [3] = assay: Antitumor activity of Compound 2 in PC3 human prostate cancer xenograft model; type: in vivo, SCID mice; conditions: for tumor volume reduction vs vehicle: Day 30
PRAS40 (T246) = assay: Phospho-PRAS40 (T246) in PC-3 cell lysates, MSD (Compound 2); type: cell-based; conditions: Homo sapiens; PC-3, 1 hour; read-out: mTORC2 PRAS40 (T246) IC50
Procedure: The direct substrate for mTORC1 was 4E-BP1(T46) and the indirect downstream substrate was S6RP (S235/S236). The direct substrate for mTORC2 was AKT (S473) and the indirect downstream substrates measured were GSK3β(S9) and PRAS40 (T246). Additionally, the phosphorylation status of AKT (T308), a phosphorylation site for PDK1, was monitored. Concentration-response curves were plotted and IC50 values determined. Cells were plated in 96-well flat bottom plates at the required density (PC-3 cells/well) and the cells were allowed to equilibrate at 37° C., 5% CO2 overnight. […] After the incubation period, the culture media was removed carefully with an aspirator. The plate was placed on ice and 50 μL of 1× Tris Lysis Buffer was added to each well. The plate was placed on a shaker at 4° C. for 1 hour to lyse the cells. At that point, the plate was either frozen at -80° C. for later analysis or immediately assayed for phosphoproteins as described below. To monitor interassay variability, a reference standard was included in the assay for PC-3 cells and the coefficient of variation for assay of […]) was 9.3% (n=50) and for assay of p-AKT (S473) was 28.6% (n=50). The assay plate was incubated with 150 μL of MSD Blocking Buffer for 1 hour with shaking at room temperature. […] Then 150 μL of 1×MSD Read Buffer T was added to each well. The plate was read on the SECTOR Imager plate reader.

Row | SMILES | loss of starting body weight ([1]; 10 mg/kg QD oral, Day 6 (24 hours after the 5th dose)) | loss of starting body weight ([1]; 25 mg/kg QD oral, Day 6 (24 hours after the 5th dose)) | loss of starting body weight ([1]; 50 mg/kg QD oral, Day 5 (24 hours after the 4th dose)) | number of TUNEL-positive cells vs vehicle (PC3 tumors [2]) | reduction in threshold area positive for pDNA-PK (S2056) vs vehicle (pDNA-PK (S2056); 2 hours after the last dose) | inhibition at 5 mg/kg (pDNA-PK (S2056); Mus musculus, through 24 hours after the last dose, read-out: pDNA-PK (S2056) inhibition (normalized to total DNA-PKcs)) | IC50 (4EBP1 (T46)) | tumor volume reduction vs vehicle (PC3 tumors [3]; 0.5 mg/kg BID) | tumor volume reduction vs vehicle (PC3 tumors [3]; 1 mg/kg BID) | tumor volume reduction vs vehicle (PC3 tumors [3]; 1 mg/kg QD) | tumor inhibition (PC3 tumors [3]; 1 mg/kg QD, Day 30 (BID/QD study)) | tumor volume reduction vs vehicle (PC3 tumors [3]; 2 mg/kg QD) | tumor volume reduction vs vehicle (PC3 tumors [3]; 5 mg/kg QD) | lowest efficacious dose (PC3 tumors [3]; BID, approximately 65% tumor volume inhibition) | IC50 (PRAS40 (T246))
1 | CO[C@H]1CC[C@H](N2C(=O)CNc3ncc(-c4ccc(C(C)(C)O)nc4)nc32)CC1 [Compound 1, 7-(6-(2-hydroxypropan-2-yl)pyridin-3-yl)-1-((1r,4r)-4-methoxycyclohexyl)-3,4-dihydropyrazino-[2,3-b]pyrazin-2(1H)-one] | 4% | 9% | > 17% | – | – | – | – | – | – | – | – | – | – | – | –
2 | CCN1C(=O)CNc2ncc(-c3ccc(-c4nc[nH]n4)nc3C)nc21 [Compound 2, 1-ethyl-7-(2-methyl-6-(1H-1,2,4-triazol-3-yl)pyridin-3-yl)-3,4-dihydropyrazino[2,3-b]pyrazin-2(1H)-one] | – | – | – | No significant change | 98% | ~90% | 130 nM | 57% | 66% | 55% | the same as 0.5 mg/kg BID | 63% | 76% | 1 mg/kg | 49 nM
